Test results taken from US20040034003A1, “7-Hydroxy-16alpha-fluoro-5-androsten-17-ones and 7-hydroxy-16alpha-fluoro-5-androstan-17-ones and derivatives thereof” (priority 2002, published 2004).
Several values for one entry are separate records, joined by “and”; a condition that tells them apart may be missing. Equal entries are not always repeated.

Tested on: TPA-Induced DNA Synthesis in Mouse Epidermis
Test: TPA-induced DNA synthesis in mouse epidermis: [3H]thymidine incorporation and epidermal DNA content of a 2x2 cm2 skin section
Type: in vivo
Details: for μg DNA / corrected cpm / cpm/μg DNA / cpm: individual mouse; for dose producing a nadir in [3H]thymidine incorporation / dose producing an overstimulation of [3H]thymidine incorporation: s.c.; for lowest effective dose which suppresses TPA-stimulated epidermal [3H]thymidine incorporation and DNA content: mice
Procedure: Epidermal hypeplasia is determined by measuring the stimulation in [^3H] thymidine incorporation as well as epidermal DNA content of a 2×2 cm^2 section of skin twenty hours after TPA application.
In prior experiments, 16α-fluoro-5-androsten-17-one was administered in escalating doses by the oral subcutaneous, intraperitoneal, and buccal routes of administration, and the effect on TPA-stimulated epidermal [^3H] thymidine incorporation and epidermal DNA content was determined.
In this experiment, the effect of treating mice subcutaneously (s.c.) with suspensions of 7α-hydroxy-16α-flouro-5-androsten-17-one and suspensions of 16aflouro-5-androsten-17-one were investigated.
Variousl6α-flouro-5-androsten-17 one suspensions (Q) were prepared. The vehicle was 95% saline (0.9% NaCl) and 5% Emulphor. For the 5 mg/kg s.c. suspension, 25.3 mg was suspended in 10 mL of Emulphor-saline. The other suspensions were made by diluting the 5 mg/kg suspension. For the 2.5 mg/kg suspension, 1 mL of 5mg/kg s.c. suspension was diluted to a final volume of 2mL, for the 1 m/kg suspension 1 mL of the 5 mg/kg suspension was made to a total of 5 mL, while for the 0.125 mg/kg suspension, 0.5 mL of the 5 mg/kg suspension was made to a final volume of 20 mL. Magnetic stir bars were added to the suspensions which were kept on a magnetic stirrer.
7α-hydroxy-16α-flouro-5-androsten-17-one was prepared as described hereinabove. For the 5 mg/kg s.c. suspension, 16.3 mg was suspended in 6.5 mL of Emulphor-saline. The other suspensions were made by diluting the 5 mg/kg suspension. For the 2.5 mg/kg, 1 mL of 5 mg/kg suspension was diluted to a final volume of 2 mL, for the 1 mg/kg suspension 1 mL of the 5 mg/kg suspension was made to total 5 mL, while for the 0.125 mg/kg suspension, 0.5 mL of the 5 mg/kg suspension was made up to final volume of 20 mL. Magnetic stir bars were added to the suspensions and the suspensions were kept on a magnetic stirrer.
Female CD-1 mice were obtained from Charles River Laboratories, Wilmington, Mass. at 44-46 days of age. The mice were housed two to three per cage in plastic shoebox cages on Alphacel bedding with 12 hours of alternating light and dark in the CAF Animal Facility, 6th floor, Pharmacy Building. The mice had ad libitum access-to Purina 5015 chow and acidified tap water (pH≦2.6). The mice were allowed to acclimate to the facility for one week prior to use in an experiment. Three days after obtaining the mice, the mice were shaved and weighed. Only those mice showing no hair regrowth were used in the experiment.
Four days after the mice were shaved, they were treated as follows:
The mice were sacrificed 20 hours after treatment by an overdose of CO2. Twenty minutes prior to sacrifice, the mice were injected with 60 μCi of [^3H]thymidine (Amersham Batch 297). The mice were treated with a depilatory to remove any residual hair. A 2×2 cm^2 piece of skin was excised, placed in ice water for 30 seconds, then in 55° C. water for 30 seconds, then ice water again for 30 seconds. The epidermis was scrapped off using a scalpel and the scrapings were placed into ice cold 0.4N TCA (trichloroacetic acid). The scrapings were homogenized using a Tekmar Tissumizer (80% power for 30 seconds). The homogenates were centrifuged for 20 minutes at 3,000×g. The precipitates were washed 3× with 0.2N TCA, and 2× with absolute ethanol. The DNA in each sample was hydrolyzed with 0.5N TCA for 30 minuts at 90°. The tubes were centrifuged for 20 minutes at 3000×g. A 0.2 mL aliquot of each hydrolysate was counted in a LKB Rackbeta scintillation counter using Scintiverse II BD as the counting medium. DNA content was determined by the Burton diphenylamine assay.
Various suspensions were prepared of 16α-fluoro-5-androsten-17-one as follows. The vehicle was 95% saline (0.9% NaCl) and 5% Emulphor. For the 5 mg/kg s.c. suspension, 27.8 mg was suspended in 11.4 mL of Emulphor-saline. The other suspensions were made by diluting the 5 mg/kg suspension. […]

[1] = Example 4, 0.125 mg/kg s.c. 1 h before topical TPA 2 μg, 20 h, 0.125 mg/kg
[2] = Example 4, 1 mg/kg s.c. 1 h before topical TPA 2 μg, 20 h, 1 mg/kg
[3] = Example 4, 2.5 mg/kg s.c. 1 h before topical TPA 2 μg, 20 h, 2.5 mg/kg
[4] = Example 4, 5 mg/kg s.c. 1 h before topical TPA 2 μg, 20 h, 5 mg/kg
[5] = Example 5, 1 mg/kg s.c. 1 h before topical TPA 2 μg, 20 h, listed as Fluasterone, 1 mg/kg
[6] = Example 5, 2.5 mg/kg s.c. 1 h before topical TPA 2 μg, 20 h, listed as Fluasterone, 2.5 mg/kg
[7] = Example 5, 5 mg/kg s.c. 1 h before topical TPA 2 μg, 20 h, listed as Fluasterone, 5 mg/kg
[8] = prior experiments, escalating doses, oral, subcutaneous, intraperitoneal and buccal routes

C[C@]12CCCCC1=CC[C@@H]1[C@@H]2CC[C@]2(C)C(=O)[C@H](F)C[C@@H]12 [Q, 16α-fluoro-5-androsten-17-one, reference compound]
μg DNA (Example 4, 0.125 mg/kg s.c. 1 h before topical TPA 2 μg, 20 h, Burton diphenylamine assay, 0.125 mg/kg): 10.0 µg and 9.1 µg | cpm/μg DNA (group average ±) (Example 4, 0.125 mg/kg s.c. 1 h before topical TPA 2 μg, 20 h): 441.5 ± 133.4 cpm/μg DNA | corrected cpm [1]: 3,471.0 cpm and 4,876.0 cpm | cpm/μg DNA [1]: 347.1 cpm/μg DNA and 535.8 cpm/μg DNA | cpm (Example 4, 0.125 mg/kg s.c. 1 h before topical TPA 2 μg, female CD-1 mice, 20 h after treatment, 0.125 mg/kg): 3,496.0 cpm and 4,901.0 cpm | cpm/μg DNA (group average ±) (Example 4, 1 mg/kg s.c. 1 h before topical TPA 2 μg, 20 h): 236.4 ± 46.5 cpm/μg DNA | corrected cpm [2]: 1,811.0 cpm and 2,750.1 cpm | cpm [2]: 1,836.0 cpm and 2,775.1 cpm | cpm/μg DNA [2]: 203.5 cpm/μg DNA and 269.6 cpm/μg DNA | μg DNA [2]: 8.9 µg and 10.2 µg | cpm/μg DNA (group average ±) (Example 4, 2.5 mg/kg s.c. 1 h before topical TPA 2 μg, 20 h): 173.3 ± 11.3 cpm/μg DNA | corrected cpm [3]: 1,251.0 cpm and 1,207.0 cpm | cpm [3]: 1,276.0 cpm and 1,232.0 cpm | cpm/μg DNA [3]: 181.3 cpm/μg DNA and 165.3 cpm/μg DNA | μg DNA [3]: 6.9 µg and 7.3 µg | cpm/μg DNA (group average ±) (Example 4, 5 mg/kg s.c. 1 h before topical TPA 2 μg, 20 h): 1105.5 ± 28.4 cpm/μg DNA | corrected cpm [4]: 8,249.0 cpm and 10,018.0 cpm | cpm [4]: 8,274.0 cpm and 10,043.0 cpm | cpm/μg DNA [4]: 1,085.4 cpm/μg DNA and 1,125.6 cpm/μg DNA | μg DNA [4]: 7.6 µg and 8.9 µg | dose producing a nadir in [3H]thymidine incorporation (Example 4): 2.5 mg/kg | dose producing an overstimulation of [3H]thymidine incorporation (Example 4): 5 mg/kg | cpm/μg DNA (group average ±) (Example 5, 1 mg/kg s.c. 1 h before topical TPA 2 μg, 20 h): 170.3 ± 21.7 cpm/μg DNA | corrected cpm [5]: 2,691.0 cpm and 2,741.0 cpm | cpm/μg DNA [5]: 185.6 cpm/μg DNA and 154.9 cpm/μg DNA | μg DNA [5]: 14.5 µg and 17.7 µg | cpm (Example 5, 1 mg/kg s.c. 1 h before topical TPA 2 μg, female CD-1 mice, 20 h, listed as Fluasterone, 1 mg/kg): 2,717.0 cpm and 2,767.0 cpm | cpm/μg DNA (group average ±) (Example 5, 2.5 mg/kg s.c. 1 h before topical TPA 2 μg, 20 h): 81.4 ± 12.0 cpm/μg DNA | corrected cpm [6]: 496.0 cpm and 566.0 cpm | cpm [6]: 522.0 cpm and 592.0 cpm | cpm/μg DNA [6]: 72.9 cpm/μg DNA and 89.8 cpm/μg DNA | μg DNA [6]: 6.8 µg and 6.3 µg | cpm/μg DNA (group average ±) (Example 5, 5 mg/kg s.c. 1 h before topical TPA 2 μg, 20 h): 258.8 ± 12.0 cpm/μg DNA | corrected cpm [7]: 2,192.0 cpm and 1,777.0 cpm | cpm [7]: 2,218.0 cpm and 1,803.0 cpm | cpm/μg DNA [7]: 267.3 cpm/μg DNA and 250.3 cpm/μg DNA | μg DNA [7]: 8.2 µg and 7.1 µg | dose producing a nadir in [3H]thymidine incorporation (Example 5): 2.5 mg/kg | dose producing an overstimulation of [3H]thymidine incorporation (Example 5): 5 mg/kg | lowest effective dose which suppresses TPA-stimulated epidermal [3H]thymidine incorporation and DNA content (prior experiments, buccal route): 2.5 to 5 mg/kg | dose response for [3H]thymidine incorporation (in words) [8]: U-shaped dose response | epidermal DNA content as the dose increased (in words) [8]: remained suppressed | lowest effective dose which suppresses TPA-stimulated epidermal [3H]thymidine incorporation and DNA content (prior experiments, intraperitoneal route): 5 mg/kg | lowest effective dose which suppresses TPA-stimulated epidermal [3H]thymidine incorporation and DNA content (prior experiments, oral route): 200 mg/kg | lowest effective dose which suppresses TPA-stimulated epidermal [3H]thymidine incorporation and DNA content (prior experiments, subcutaneous route): 2.5 mg/kg | TPA-induced epidermal hyperplasia in mice (in words) (prior finding): inhibits
